For this assay, the target named is Transient receptor potential M8 protein (Canis lupus familiaris, UniProt Q1A7N1). Put plainly: FLIPR Assay: The functional activity of compounds of the formula (I) was determined by measuring changes in intracellular calcium concentration using a Ca2+-sensitive fluorescent dye. The changes in fluorescent signal were monitored by a fluorescence plate reader, either a FLIPR (Molecular Devices) or FDSS (Hamamatsu). Increases in intracellular Ca2+ concentration were readily detected upon activation with icilin.At 24 hrs prior to assay, HEK293 cells stably expressing canine TRPM8 were seeded in culture medium in black wall, clear-base poly-D-lysine coated 384-well plates (BD Biosciences, NJ, USA) and grown overnight in 5% CO2 at 37° C. On assay day, growth media was removed and cells were loaded with Calcium 3 Dye (Molecular Devices) for 35 min at 37° C., under 5% CO2 and then for 25 min at room temperature and atmosphere. Format: cell-based. A general note: Calcium flux is commonly read through the fluorescence of an indicator in the cells.

In general, IC50 refers to the point on the concentration scale where inhibition reaches its midpoint.

Chain of Transient receptor potential M8 protein (Q1A7N1 whole entry): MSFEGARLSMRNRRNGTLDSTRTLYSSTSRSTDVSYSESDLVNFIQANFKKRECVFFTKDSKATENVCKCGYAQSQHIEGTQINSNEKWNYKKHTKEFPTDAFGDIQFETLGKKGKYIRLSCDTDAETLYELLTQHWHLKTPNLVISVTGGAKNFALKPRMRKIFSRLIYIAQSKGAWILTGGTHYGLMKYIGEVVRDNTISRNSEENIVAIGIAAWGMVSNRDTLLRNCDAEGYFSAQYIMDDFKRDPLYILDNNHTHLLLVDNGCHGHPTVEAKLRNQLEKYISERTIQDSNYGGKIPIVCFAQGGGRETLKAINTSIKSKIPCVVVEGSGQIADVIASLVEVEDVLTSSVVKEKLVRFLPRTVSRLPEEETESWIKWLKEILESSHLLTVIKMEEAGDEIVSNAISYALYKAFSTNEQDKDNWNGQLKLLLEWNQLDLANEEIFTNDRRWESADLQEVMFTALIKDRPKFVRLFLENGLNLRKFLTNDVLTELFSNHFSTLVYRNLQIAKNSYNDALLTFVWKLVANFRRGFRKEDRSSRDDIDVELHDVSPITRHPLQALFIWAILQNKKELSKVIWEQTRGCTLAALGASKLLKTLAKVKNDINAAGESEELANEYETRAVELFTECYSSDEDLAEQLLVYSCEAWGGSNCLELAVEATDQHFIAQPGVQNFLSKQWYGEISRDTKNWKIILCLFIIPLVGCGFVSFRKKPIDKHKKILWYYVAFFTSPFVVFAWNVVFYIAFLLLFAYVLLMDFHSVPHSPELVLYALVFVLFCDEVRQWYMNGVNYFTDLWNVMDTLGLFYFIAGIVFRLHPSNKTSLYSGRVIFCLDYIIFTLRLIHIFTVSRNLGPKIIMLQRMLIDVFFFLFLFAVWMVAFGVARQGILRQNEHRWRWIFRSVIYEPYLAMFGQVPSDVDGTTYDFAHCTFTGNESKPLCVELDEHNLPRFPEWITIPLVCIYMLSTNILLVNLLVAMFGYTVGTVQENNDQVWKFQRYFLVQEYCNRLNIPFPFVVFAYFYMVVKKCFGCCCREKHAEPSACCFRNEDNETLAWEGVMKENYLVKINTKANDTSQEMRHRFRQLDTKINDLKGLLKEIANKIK

As for `Cc1c(N(Cc2ccc(F)c(C(F)(F)F)c2)S(=O)(=O)c2ccc(C(=O)O)cc2)nc2ccc(Cl)cn12`, the IC50 turned out to be 34.9 nM.

The values above are taken from ChEMBL document CHEMBL3638637, “Imidazo[1,2-Œ±]pyridine sulfonamides as TRPM8 modulators” (2015).
